Values joined by “and” are separate entries in the source; they are usually repeats but may differ in a detail not shown here. Equal values may be shown once. Toxic doses and inconclusive results are not listed. The calls were made as follows: active = survival T/C of 150% or more; inactive = T/C below 125% in these data.
System: BDF1 mice, B16 melanoma ip, median survival T/C
Assay: NCI In Vivo Anticancer Drug Screen. Data for tumor model B16 Melanoma (intraperitoneal) in B6D2F1 (BDF1) mice
Conditions: endpoint: median survival time, higher = longer survival
Summary of the method: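 Survival or tumor size is measured after treatment of tumor-bearing mice and normalised to the vehicle-treated control group.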

[1] = dose: 50.0 mg/kg/injection, schedule: Q01DX009 (ip), vehicle: Klucel (hydroxypropylcellulose) (HPC)
[2] = dose: 100.0 mg/kg/injection, schedule: Q01DX009 (ip), vehicle: Klucel (hydroxypropylcellulose) (HPC)
[3] = dose: 200.0 mg/kg/injection, schedule: Q01DX009 (ip), vehicle: Klucel (hydroxypropylcellulose) (HPC)
[4] = dose: 100.0 mg/kg/injection, schedule: Q01DX009 (ip), vehicle: saline
[5] = dose: 100.0 mg/kg/injection, schedule: Q01DX009 (ip), vehicle: saline with Tween-80
[6] = dose: 200.0 mg/kg/injection, schedule: Q01DX009 (ip), vehicle: saline with Tween-80
[7] = dose: 400.0 mg/kg/injection, schedule: Q01DX009 (ip), vehicle: saline with Tween-80
[8] = dose: 25.0 mg/kg/injection, schedule: Q01DX009 (ip), vehicle: Klucel (hydroxypropylcellulose) (HPC)
[9] = dose: 50.0 mg/kg/injection, schedule: Q04DX003 (ip), vehicle: Klucel (hydroxypropylcellulose) (HPC)
[10] = dose: 100.0 mg/kg/injection, schedule: Q04DX003 (ip), vehicle: Klucel (hydroxypropylcellulose) (HPC)
[11] = dose: 200.0 mg/kg/injection, schedule: Q04DX003 (ip), vehicle: Klucel (hydroxypropylcellulose) (HPC)
[12] = dose: 12.5 mg/kg/injection, schedule: Q01DX009 (ip), vehicle: saline with Tween-80
[13] = dose: 25.0 mg/kg/injection, schedule: Q01DX009 (ip), vehicle: saline with Tween-80
[14] = dose: 50.0 mg/kg/injection, schedule: Q01DX009 (ip), vehicle: saline with Tween-80
[15] = dose: 100.0 mg/kg/injection, schedule: Q01DX009 (ip), vehicle: other
[16] = dose: 200.0 mg/kg/injection, schedule: Q01DX009 (ip), vehicle: other
[17] = dose: 12.5 mg/kg/injection, schedule: Q01DX009 (ip), vehicle: saline
[18] = dose: 25.0 mg/kg/injection, schedule: Q01DX009 (ip), vehicle: saline
[19] = dose: 50.0 mg/kg/injection, schedule: Q01DX009 (ip), vehicle: saline
[20] = dose: 400.0 mg/kg/injection, schedule: Q01DX009 (ip), vehicle: Klucel (hydroxypropylcellulose) (HPC)

Measured: T/C

COc1cccc2c1C(=O)c1c(O)c3c(c(O)c1C2=O)C[C@@](O)(C(C)=O)C[C@@H]3OC1CC(N2CCOCC2C#N)C(O)C(C)O1 (stereo partly specified)
inactive: dose: 9.38 micrograms/kg/injection, schedule: Q01DX001 (ip), vehicle: distilled water + Tween-80 117 % of control | dose: 18.75 micrograms/kg/injection, schedule: Q01DX001 (ip), vehicle: water 107 % of control | dose: 75.0 micrograms/kg/injection, schedule: Q01DX001 (ip), vehicle: water 112 % of control

O=C1C(N2CC2)=C(N2CCCC(O)C2)C(=O)C(N2CC2)=C1N1CCCC(O)C1 (stereo unspecified)
inactive: dose: 0.25 mg/kg/injection, schedule: Q01DX009 (ip), vehicle: saline 113 % of control | dose: 0.5 mg/kg/injection, schedule: Q01DX009 (ip), vehicle: saline 120 % of control

Cc1ccccc1N=Nc1c(N)ccc2ccccc12
inactive: [1] 110 % of control | [2] 106 % of control | [3] 106 % of control

CCC(C)OC(N)=O (stereo unspecified)
inactive: [4] 123 % of control

NC1c2cc(Cl)ccc2-c2c(Cl)cc(Cl)cc21 (stereo unspecified)
inactive: [5] 109 % of control | [6] 111 % of control | [7] 102 % of control

CCCCCCCCCCCC1=NCCN1
inactive: dose: 3.0 mg/kg/injection, schedule: Q01DX009 (ip), vehicle: saline with Tween-80 94 % of control | dose: 6.0 mg/kg/injection, schedule: Q01DX009 (ip), vehicle: saline with Tween-80 97 % of control | dose: 12.0 mg/kg/injection, schedule: Q01DX009 (ip), vehicle: saline with Tween-80 88 % of control

CCCCCCCCC(=O)OCCNC(=O)C(C)OC(=O)CCCCCCCC (stereo unspecified)
inactive: [8] 102 % of control | [1] 103 % of control | [2] 92 % of control

CO/C(=C\c1ccc(OC)cc1)C(=O)O
inactive: [9] 94 % of control | [10] 100 % of control | [11] 111 % of control

O=C1CC(C(=O)N2Cc3cc4ccccc4nc3C2)CO1 (stereo unspecified)
inactive: dose: 6.25 mg/kg/injection, schedule: Q01DX009 (ip), vehicle: saline with Tween-80 111 % of control | [12] 115 % of control | [13] 113 % of control | [14] 109 % of control | [5] 116 % of control | [6] 100 % of control

O=C1CCCC(=O)C1C(C[N+](=O)[O-])c1ccccc1 (stereo unspecified)
inactive: dose: 12.5 mg/kg/injection, schedule: Q01DX009 (ip), vehicle: Klucel (hydroxypropylcellulose) (HPC) 86 % of control | [8] 94 % of control | [1] 107 % of control | [2] 107 % of control

CCOC(=O)C(NC(N)=O)C(=O)OCC
inactive: dose: 50.0 mg/kg/injection, schedule: Q01DX009 (ip), vehicle: other 104 % of control | [15] 104 % of control | [16] 103 % of control | dose: 400.0 mg/kg/injection, schedule: Q01DX009 (ip), vehicle: other 104 % of control

ClC1C(Cl)C(Cl)C(Cl)C(Cl)C1Cl (stereo unspecified)
inactive: [8] 95 % of control | [13] 100 % of control | [1] 105 % of control | [14] 99 % of control | [2] 93 % of control | [3] 93 % of control | [6] 96 % of control | [7] 89 % of control

C=CC(=O)NCNC(=O)C=C
inactive: [12] 104 % of control | [17] 110 % of control | [13] 99 % of control | [18] 102 % of control | [14] 103 % of control | [19] 109 % of control | [5] 107 % of control | [4] 102 % of control

C=CCSC(C)CC (stereo unspecified)
inactive: [13] 108 % of control | [14] 119 % of control | [5] 107 % of control

CSCCC(N)C(=O)O (stereo unspecified)
inactive: dose: 40.0 mg/kg/injection, schedule: Q01DX009 (ip), vehicle: saline with Tween-80 103 % of control and 106 % of control | dose: 80.0 mg/kg/injection, schedule: Q01DX009 (ip), vehicle: saline with Tween-80 102 % of control and 108 % of control | dose: 160.0 mg/kg/injection, schedule: Q01DX009 (ip), vehicle: saline with Tween-80 113 % of control and 118 % of control | dose: 320.0 mg/kg/injection, schedule: Q01DX009 (ip), vehicle: saline with Tween-80 94 % of control and 100 % of control

Clc1ccc(Cl)c(NNc2cc(Cl)ccc2Cl)c1
inactive: [8] 101 % of control | [1] 95 % of control | [2] 101 % of control

O=C1C(F)=C(N2CC2)C(=O)C(N2CCOCC2)=C1N1CC1
inactive: dose: 0.75 mg/kg/injection, schedule: Q01DX009 (ip), vehicle: saline 118 % of control | dose: 1.5 mg/kg/injection, schedule: Q01DX009 (ip), vehicle: saline 108 % of control | dose: 3.0 mg/kg/injection, schedule: Q01DX009 (ip), vehicle: saline 100 % of control

Cc1ccc(S(=O)(=O)N=S2CCCC2)cc1
inactive: [9] 100 % of control | [10] 102 % of control | [11] 103 % of control | dose: 400.0 mg/kg/injection, schedule: Q04DX003 (ip), vehicle: Klucel (hydroxypropylcellulose) (HPC) 102 % of control

CCCCNC(=S)S
inactive: [15] 90 % of control | [16] 94 % of control

CNC1C(O)C(NC)C2OC3(O)C(=O)CC(C)OC3OC2C1O (stereo unspecified)
inactive: [18] 95 % of control | [19] 100 % of control | [4] 109 % of control

CCCC(C(=O)O)C1=CCCC1 (stereo unspecified)
inactive: [13] 115 % of control | [14] 112 % of control | [5] 103 % of control

CCN(CC)CCOc1cc(C)ccc1C(C)C
inactive: [1] 111 % of control | [9] 95 % of control | [10] 97 % of control | [11] 86 % of control

OCC#CCOCC(O)CCl (stereo unspecified)
inactive: dose: 25.0 mg/kg/injection, schedule: Q01DX009 (ip), vehicle: water 102 % of control | dose: 50.0 mg/kg/injection, schedule: Q01DX009 (ip), vehicle: water 98 % of control | dose: 100.0 mg/kg/injection, schedule: Q01DX009 (ip), vehicle: water 92 % of control

CCOc1ccc(/C=N/NS(=O)(=O)c2ccc(C)cc2)cc1
inactive: [2] 96 % of control | [3] 90 % of control | [20] 90 % of control

O=C1C(Br)C2CCC1C2C(=O)O (stereo unspecified)
inactive: [5] 111 % of control | [6] 94 % of control | [7] 89 % of control

CC(C)c1ccc(NC(=O)Nc2cccc3ccccc23)cc1
inactive: [2] 100 % of control | [3] 97 % of control

O=C(O)c1cc(S(=O)O)ccc1O
inactive: dose: 10.0 mg/kg/injection, schedule: Q01DX009 (ip), vehicle: saline 103 % of control | dose: 20.0 mg/kg/injection, schedule: Q01DX009 (ip), vehicle: saline 106 % of control | dose: 40.0 mg/kg/injection, schedule: Q01DX009 (ip), vehicle: saline 98 % of control

[I][Pt+2][I].[NH-]CC[NH-]
inactive: dose: 2.75 mg/kg/injection, schedule: Q01DX009 (ip), vehicle: Klucel (hydroxypropylcellulose) (HPC) 110 % of control | dose: 5.5 mg/kg/injection, schedule: Q01DX009 (ip), vehicle: Klucel (hydroxypropylcellulose) (HPC) 109 % of control and 114 % of control | dose: 11.0 mg/kg/injection, schedule: Q01DX009 (ip), vehicle: Klucel (hydroxypropylcellulose) (HPC) 109 % of control and 113 % of control | dose: 22.0 mg/kg/injection, schedule: Q01DX009 (ip), vehicle: Klucel (hydroxypropylcellulose) (HPC) 120 % of control

CCC(=O)c1ccc2c(c1)N(C(C)CN(C)C)c1ccccc1S2 (stereo unspecified)
inactive: [17] 120 % of control | [18] 110 % of control | [19] 105 % of control

c1ccc(N/N=C2/c3ccccc3CC23OC3c2ccccc2)cc1 (stereo unspecified)
inactive: [1] 87 % of control | [2] 96 % of control | [20] 89 % of control

CC(=O)NCC1(c2ccccc2)CCN(CCCC(=O)c2ccc(F)cc2)CC1
inactive: [1] 93 % of control | [2] 106 % of control

From PubChem BioAssay AID192 (DTP/NCI, 2004)
